Measurements reported in ChEMBL document CHEMBL1128559, “Inhibition of the oncogene product p185erbB-2 in vitro and in vivo by geldanamycin and dihydrogeldanamycin derivatives” (J Med Chem, 1995).

Test system: SK-BR-3
Test: Inhibition of oncogene product p185 erbB-2 from human breast cancer cells(SK-BR-3 cells).

Row | Structure (SMILES) | IC50
1 | CO[C@H]1/C=C\C=C(/C)C(=O)NC2=CC(=O)C(N3CCCC3C(=O)O)=C(C[C@@H](C)C[C@H](OC)[C@H](O)[C@@H](C)/C=C(\C)[C@@H]1OC(N)=O)C2=O (stereo partly specified) | 790 nM
2 | CO[C@H]1/C=C\C=C(/C)C(=O)NC2=CC(=O)C(NCC3CCNCC3)=C(C[C@@H](C)C[C@H](OC)[C@H](O)[C@@H](C)/C=C(\C)[C@@H]1OC(N)=O)C2=O | > 3100 nM
3 | CO[C@H]1C[C@H](C)CC2=C(NC(C)C)C(=O)C=C(NC(=O)/C(C)=C/CC[C@H](OC)[C@@H](OC(N)=O)/C(C)=C/[C@H](C)[C@H]1O)C2=O | 470 nM
4 | CO[C@H]1/C=C\C=C(/C)C(=O)NC2=CC(=O)C(NC[C@@H](C)O)=C(C[C@@H](C)C[C@H](OC)[C@H](O)[C@@H](C)/C=C(\C)[C@@H]1OC(N)=O)C2=O | 260 nM
5 | COC1=C2C[C@@H](C)C[C@H](OC)[C@H](O)[C@@H](C)/C=C(\C)[C@H](OC(N)=O)[C@@H](OC)CC/C=C(\C)C(=O)NC(=CC1=O)C2=O | 230 nM
6 | CO[C@H]1C[C@H](C)CC2=C(NCCSC)C(=O)C=C(NC(=O)/C(C)=C/CC[C@H](OC)[C@@H](OC(N)=O)/C(C)=C/[C@H](C)[C@H]1O)C2=O | 140 nM
7 | CO[C@H]1/C=C\C=C(/C)C(=O)NC2=CC(=O)C(NCc3ccccc3)=C(C[C@@H](C)C[C@H](OC)[C@H](O)[C@@H](C)/C=C(\C)[C@@H]1OC(N)=O)C2=O | 790 nM
8 | CO[C@H]1/C=C\C=C(/C)C(=O)NC2=CC(=O)C(NC(C)(C)C)=C(C[C@@H](C)C[C@H](OC)[C@H](O)[C@@H](C)/C=C(\C)[C@@H]1OC(N)=O)C2=O | 200 nM
9 | CO[C@H]1C[C@H](C)CC2=C(N3CC(N)C3)C(=O)C=C(NC(=O)/C(C)=C/CC[C@H](OC)[C@@H](OC(N)=O)/C(C)=C/[C@H](C)[C@H]1O)C2=O | 66 nM
10 | CO[C@H]1/C=C\C=C(/C)C(=O)Nc2cc3nc4ccccc4oc-3c(c2=O)C[C@@H](C)C[C@H](OC)[C@H](O)[C@@H](C)/C=C(\C)[C@@H]1OC(N)=O | 420 nM
11 | CO[C@H]1/C=C\C=C(/C)C(=O)NC2=CC(=O)C(NCC(O)CO)=C(C[C@@H](C)C[C@H](OC)[C@H](O)[C@@H](C)/C=C(\C)[C@@H]1OC(N)=O)C2=O (stereo partly specified) | 970 nM
12 | CO[C@H]1/C=C\C=C(/C)C(=O)NC2=CC(=O)C(O)=C(C[C@@H](C)C[C@H](OC)[C@H](O)[C@@H](C)/C=C(\C)[C@@H]1OC(N)=O)C2=O | > 3700 nM
13 | CO[C@H]1/C=C\C=C(/C)C(=O)NC2=CC(=O)C(NCCS(=O)(=O)O)=C(C[C@@H](C)C[C@H](OC)[C@H](O)[C@@H](C)/C=C(\C)[C@@H]1OC(N)=O)C2=O | > 2700 nM
14 | CO[C@H]1/C=C\C=C(/C)C(=O)NC2=CC(=O)C(NCCCn3ccnc3)=C(C[C@@H](C)C[C@H](OC)[C@H](O)[C@@H](C)/C=C(\C)[C@@H]1OC(N)=O)C2=O | 920 nM
15 | CO[C@H]1/C=C\C=C(/C)C(=O)NC2=CC(=O)C(NCCCO)=C(C[C@@H](C)C[C@H](OC)[C@H](O)[C@@H](C)/C=C(\C)[C@@H]1OC(N)=O)C2=O | 130 nM
16 | COC1=C2C[C@@H](C)C[C@H](OC)[C@H](O)[C@@H](C)/C=C(\C)[C@H](OC(N)=O)[C@@H](OC)/C=C\C=C(/C)C(=O)N3CN(C(C)(C)C)CC(=C3C2=O)C1=O | > 3040 nM

The remaining lines, values ahead:

Row | IC50 | Structure (SMILES)
17 | 260 nM | CO[C@H]1/C=C\C=C(/C)C(=O)NC2=CC3=NCCCNC3=C(C[C@@H](C)C[C@H](OC)[C@H](O)[C@@H](C)/C=C(\C)[C@@H]1OC(N)=O)C2=O
18 | 320 nM | CO[C@H]1/C=C\C=C(/C)C(=O)NC2=CC(=O)C(NCCc3ccco3)=C(C[C@@H](C)C[C@H](OC)[C@H](O)[C@@H](C)/C=C(\C)[C@@H]1OC(N)=O)C2=O
19 | 520 nM | COC1c2cc(O)cc(c2O)NC(=O)/C(C)=C/C=C\[C@H](OC)[C@@H](OC(N)=O)/C(C)=C/[C@H](C)[C@@H](OC)[C@@H](OC)C[C@@H]1C (stereo partly specified)
20 | 150 nM | CO[C@H]1/C=C\C=C(/C)C(=O)NC2=CC3=NC(/N=C(\N)N4CCC(C)CC4)=NC3=C(C[C@@H](C)C[C@H](OC)[C@H](O)[C@@H](C)/C=C(\C)[C@@H]1OC(N)=O)C2=O
21 | 170 nM | CO[C@H]1/C=C\C=C(/C)C(=O)NC2=CC(=O)C(NCCS)=C(C[C@@H](C)C[C@H](OC)[C@H](O)[C@@H](C)/C=C(\C)[C@@H]1OC(N)=O)C2=O
22 | 1300 nM | CO[C@H]1/C=C\C=C(/C)C(=O)NC2=CC(=O)C(N3CC(CO)C3)=C(C[C@@H](C)C[C@H](OC)[C@H](O)[C@@H](C)/C=C(\C)[C@@H]1OC(N)=O)C2=O
23 | > 3250 nM | COC1=C2C[C@@H](C)C[C@H](OC)[C@H](O)[C@@H](C)/C=C(\C)[C@H](OC(N)=O)[C@@H](OC)/C=C\C=C(/C)C(=O)NC(=C(NC3CC3)C1=O)C2=O
24 | 220 nM | CO[C@H]1/C=C\C=C(/C)C(=O)NC2=CC(=O)C(Nc3nccs3)=C(C[C@@H](C)C[C@H](OC)[C@H](O)[C@@H](C)/C=C(\C)[C@@H]1OC(N)=O)C2=O
25 | 1100 nM | COC1c2cc(O)cc(c2O)NC(=O)/C(C)=C/C=C\[C@H](OC)[C@@H](OC(N)=O)/C(C)=C/[C@H](C)[C@@H](O)[C@@H](OC)C[C@@H]1C (stereo partly specified)
26 | 1270 nM | CO[C@H]1/C=C\C=C(/C)C(=O)NC2=CC(=O)C(NCCNC(C)=O)=C(C[C@@H](C)C[C@H](OC)[C@H](O)[C@@H](C)/C=C(\C)[C@@H]1OC(N)=O)C2=O
